Legend:
[1] = test system: ACHN; experiment: NCI in vitro 60-cell drug screen (SRB assay); type: cell-based; settings: ACHN (Renal cancer); 10^-5 molar concentration; 48 hours
[2] = test system: 60 cell lines; experiment: NCI in vitro 60-cell drug screen (SRB assay), whole panel statistics; settings: mean over the cell panel; 10^-5 molar concentration; 48 hours
[3] = test system: HOP-62; experiment: NCI in vitro 60-cell drug screen (SRB assay); type: cell-based; settings: HOP-62 (Non-small cell lung cancer); 10^-5 molar concentration; 48 hours
[4] = test system: HL-60(TB); experiment: NCI in vitro 60-cell drug screen (SRB assay); type: cell-based; settings: HL-60(TB) (Leukemia); 10^-5 molar concentration; 48 hours
[5] = test system: MCF7; experiment: NCI in vitro 60-cell drug screen (SRB assay); type: cell-based; settings: MCF7 (Breast cancer); 10^-5 molar concentration; 48 hours
[6] = test system: NCI/ADR-RES; experiment: NCI in vitro 60-cell drug screen (SRB assay); type: cell-based; settings: NCI/ADR-RES (Ovarian cancer); 10^-5 molar concentration; 48 hours
[7] = test system: PC-3; experiment: MTT assay for cell cytotoxicity; type: cell-based, human; settings: Homo sapiens, 72 h, at least three independent experiments, read-out: MTT assay (IC50 ± SD) PC-3
[8] = test system: DU-145; experiment: MTT assay for cell cytotoxicity; type: cell-based, human; settings: Homo sapiens, 72 h, at least three independent experiments, read-out: MTT assay (IC50 ± SD) DU-145
Outline: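 Seeded cells pre-incubated 24 h, then treated 72 h with 0.15–15 µM compound in RPMI-1640/5% FBS at 37 °C. MTT (1 mg/mL) added for 4 h, formazan dissolved in DMSO, absorbance at 560 nm; IC50 from mean of ≥3 independent experiments.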

[9] = test system: SF-539; experiment: NCI in vitro 60-cell drug screen (SRB assay); type: cell-based; settings: SF-539 (CNS cancer); 10^-5 molar concentration; 48 hours
[10] = test system: SR; experiment: NCI in vitro 60-cell drug screen (SRB assay); type: cell-based; settings: SR (Leukemia); 10^-5 molar concentration; 48 hours
[11] = test system: UO-31; experiment: NCI in vitro 60-cell drug screen (SRB assay); type: cell-based; settings: UO-31 (Renal cancer); 10^-5 molar concentration; 48 hours
[12] = test system: K-562; experiment: NCI in vitro 60-cell drug screen (SRB assay); type: cell-based; settings: K-562 (Leukemia); 10^-5 molar concentration; 48 hours
[13] = test system: A549/ATCC; experiment: NCI in vitro 60-cell drug screen (SRB assay); type: cell-based; settings: A549/ATCC (Non-small cell lung cancer); 10^-5 molar concentration; 48 hours
[14] = test system: KM12; experiment: NCI in vitro 60-cell drug screen (SRB assay); type: cell-based; settings: KM12 (Colon cancer); 10^-5 molar concentration; 48 hours
[15] = test system: A498; experiment: NCI in vitro 60-cell drug screen (SRB assay); type: cell-based; settings: A498 (Renal cancer); 10^-5 molar concentration; 48 hours
[16] = test system: BT-549; experiment: NCI in vitro 60-cell drug screen (SRB assay); type: cell-based; settings: BT-549 (Breast cancer); 10^-5 molar concentration; 48 hours
[17] = test system: NCI-H460; experiment: NCI in vitro 60-cell drug screen (SRB assay); type: cell-based; settings: NCI-H460 (Non-small cell lung cancer); 10^-5 molar concentration; 48 hours
[18] = test system: PC-3; experiment: NCI in vitro 60-cell drug screen (SRB assay); type: cell-based; settings: PC-3 (Prostate cancer); 10^-5 molar concentration; 48 hours
[19] = test system: RXF 393; experiment: NCI in vitro 60-cell drug screen (SRB assay); type: cell-based; settings: RXF 393 (Renal cancer); 10^-5 molar concentration; 48 hours
[20] = test system: TK-10; experiment: NCI in vitro 60-cell drug screen (SRB assay); type: cell-based; settings: TK-10 (Renal cancer); 10^-5 molar concentration; 48 hours
[21] = test system: HS 578T; experiment: NCI in vitro 60-cell drug screen (SRB assay); type: cell-based; settings: HS 578T (Breast cancer); 10^-5 molar concentration; 48 hours
[22] = test system: SK-OV-3; experiment: NCI in vitro 60-cell drug screen (SRB assay); type: cell-based; settings: SK-OV-3 (Ovarian cancer); 10^-5 molar concentration; 48 hours
[23] = test system: SK-MEL-2; experiment: NCI in vitro 60-cell drug screen (SRB assay); type: cell-based; settings: SK-MEL-2 (Melanoma); 10^-5 molar concentration; 48 hours
[24] = test system: NCI-H226; experiment: NCI in vitro 60-cell drug screen (SRB assay); type: cell-based; settings: NCI-H226 (Non-small cell lung cancer); 10^-5 molar concentration; 48 hours
[25] = test system: OVCAR-4; experiment: NCI in vitro 60-cell drug screen (SRB assay); type: cell-based; settings: OVCAR-4 (Ovarian cancer); 10^-5 molar concentration; 48 hours
[26] = test system: EKVX; experiment: NCI in vitro 60-cell drug screen (SRB assay); type: cell-based; settings: EKVX (Non-small cell lung cancer); 10^-5 molar concentration; 48 hours

SMILES | Growth percent [1] | Growth percent, Mean [2] | Growth percent [3] | Growth percent [4] | Growth percent [5] | Growth percent [6] | IC50 [7] | IC50 [8] | Growth percent [9] | Growth percent [10] | Growth percent [11] | Growth percent [12] | Growth percent [13] | Growth percent [14] | Growth percent [16] | Growth percent [17] | Growth percent [18] | Growth percent [19] | Growth percent [20] | Growth percent [21] | other results
O=c1c2cc(Cl)ccc2sc2c(N3CCOCC3)nc3ccccc3c12 [Compound 13, 10-Chloro-6-morpholino-12H-thiochromeno[2,3-c]quinolin-12-one] | 82.54% | 90.52% | 70.77% | 93.38% | 50.59% | 98.16% | > 15 µM | > 15 µM | 82.38% | 88.91% | 73.11% | 81.18% | 92.97% | 88.68% | 113.81% | 99.28% | 79.80% | 108.61% | 86.24% | 83.27% | Growth percent [15]: 94.15%; Growth percent [22]: 77.18%; Growth percent [23]: 98.77%; Growth percent [24]: 88.01%; Growth percent [25]: 96.75%
CN1CCN(c2nc3ccccc3c3c(=O)c4cc(Cl)ccc4sc23)CC1 [Compound 8, 10-Chloro-6-(4-methylpiperazin-1-yl)-12H-thiochromeno[2,3-c]q uinolin-12-one] | 89.73% | 86.81% | 49.41% | 96.19% | 76.60% | 81.35% | 7.18 ± 2.45 µM | 12.9 ± 0.26 µM | 85.30% | 86.41% | 48.97% | 72.98% | 99.80% | 110.71% | 96.25% | 96.05% | 84.81% | 88.57% | 97.07% | 65.57% | Growth percent [15]: 79.33%; Growth percent [22]: 75.11%; Growth percent [23]: 97.53%; Growth percent [24]: 85.67%; Growth percent [25]: 94.93%
O=C(O)c1c(Sc2ccc(Cl)cc2)c(O)nc2ccccc12 [Compound 2, 3-((4-Chlorophenyl)thio)-2-hydroxyquinoline-4-carboxylic acid] | 113.47% | 102.11% | 116.47% | 105.63% | 91.95% | 97.75% | > 15 µM | > 15 µM | 110.22% | 106.33% | 68.91% | 112.29% | 107.34% | 112.61% | 124.20% | 104.20% | 93.23% | 113.90% | 118.09% | 88.33% | Growth percent [26]: 89.47%; Growth percent [23]: 119.91%; Growth percent [24]: 105.64%; Growth percent [25]: 98.41%
O=c1c2cc(Cl)ccc2sc2c(N3CCN(Cc4ccccc4)CC3)nc3ccccc3c12 [Compound 11, 6-(4-Benzylpiperazin-1-yl)-10-chloro-12H-thiochromeno[2,3-c]q uinolin-12-one] | 96.39% | 96.19% | 87.72% | 100.96% | 68.32% | 98.31% | > 15 µM | > 15 µM | 108.56% | 85.15% | 64.91% | 87.84% | 106.37% | 107.75% | 114.05% | 95.57% | 89.12% | 100.71% | 124.99% | 76.42% | Growth percent [15]: 94.17%; Growth percent [22]: 94.79%; Growth percent [23]: 107.37%; Growth percent [24]: 88.98%; Growth percent [25]: 102.43%

Source: patent EP3002287B1, “Thiochromeno[2,3-c]quinolin-12-one derivatives and their use as topoisomerase inhibitors” (National Defense Medical Center, priority 2014, dated 2016)
